{"source": "patent US4988692A", "about": "“2,4-dioxo-5-phenyl-2,3,4,5-tetrahydro-1H-1,5-benzodiazepines” (Uclaf; Roussel, priority 1985, dated 1991)", "key": {"[1]": {"molecular_target": "T1, Peripheral CCK receptors (Rattus norvegicus, UniProt P30551)", "T1 construct": "The pancreases of 3 male rats weighing 150-200 g were removed and ground up with Polytron; from tissue; host or cells: rat pancreas homogenate (30,000 g pellet)", "T1 sequence (P30551 1-444)": "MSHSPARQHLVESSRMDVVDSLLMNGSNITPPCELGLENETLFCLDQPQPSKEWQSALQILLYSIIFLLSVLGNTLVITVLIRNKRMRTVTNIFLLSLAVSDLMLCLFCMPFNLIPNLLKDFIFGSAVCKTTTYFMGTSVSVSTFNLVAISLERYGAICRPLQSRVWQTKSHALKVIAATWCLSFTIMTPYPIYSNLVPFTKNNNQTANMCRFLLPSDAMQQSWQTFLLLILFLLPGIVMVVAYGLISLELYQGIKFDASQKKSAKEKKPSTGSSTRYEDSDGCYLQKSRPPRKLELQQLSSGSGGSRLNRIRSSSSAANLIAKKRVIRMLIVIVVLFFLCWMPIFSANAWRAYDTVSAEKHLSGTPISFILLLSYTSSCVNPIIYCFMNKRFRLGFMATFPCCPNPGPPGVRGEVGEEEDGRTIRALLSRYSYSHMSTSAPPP", "test": "Peripheral receptors: 3H CCK8 binding, rat pancreas homogenate", "experimental": "The pancreases of 3 male rats weighing 150-200 g were removed and ground up with Polytron (4 grindings, speed 3, with an interval of 10 seconds between the grindings) and the homogenate was filtered through a gauze and then centrifuged at 30,000 g for 30 minutes. The residues obtained were taken up in 400 volumes (600 ml) of Tris 50 mM HCl pH 7.4 buffer containing BSA 2 g/l., bacitracin 0.1 mM, MgCl2 5 mM, dithiothreitol 5 mM. 2 ml aliquots of the homogenate were incubated at 25° C. for 60 minutes in the presence of […] 3H CCK8 and of the test product (10,000 μM for 1 dose, or with one range of 7 doses) and of cold CCK8 (10^-6 M) which was the reference product. After returning to 0° C., the aliquots were filtered on Whatman GF/B filters, pre-washed in a solution of polyethylene imine at 0.05% and washed with 3×5 ml of buffer Tris HCl 50 mM, pH 7.4. The results were expressed in IC50, the concentration necessary to inhibit by 50% the fixed specific radioactivity, IC50 n mol"}, "[2]": {"tested_on": "food consumption", "test": "Action on the alimentary intake in a rat", "assay_type": "in vivo", "conditions": "10 mg/kg intraperitoneal, consumption followed hourly for 5 hours", "experimental": "The tests were carried out on groups of 5 rats weighing 250 g±10 g and the animals were individually placed in cages with a trough as described by Fregly (J. Appl. Physiol Vol. 15 (1960), p. 539) which avoided wasting of the powdered foodstuffs. The rats were accustomed to taking their daily portion over 5 consecutive hours with as much drinking water as desired being offered in glass feeding bottles. The quantities of food ingested were determined individually by the weight of the troughs and the comsumptions were followed hourly for 5 hours after intraperitoneal administration of 10 mg/kg of the compound. The quantities consumed are expressed in g/100 g of body weight per hour. The averages are compared to those obtained with control animals by a DUNNETT test."}, "[3]": {"molecular_target": "T2, Central CCK receptors (Rattus norvegicus, UniProt P30553)", "T2 construct": "The cortices of 20 male rats weighing 150 to 200 g were removed, and were ground up with Polytron in sucrose; from tissue; host or cells: rat cerebral cortex homogenate (washed membrane pellet)", "T2 sequence (P30553 1-452)": "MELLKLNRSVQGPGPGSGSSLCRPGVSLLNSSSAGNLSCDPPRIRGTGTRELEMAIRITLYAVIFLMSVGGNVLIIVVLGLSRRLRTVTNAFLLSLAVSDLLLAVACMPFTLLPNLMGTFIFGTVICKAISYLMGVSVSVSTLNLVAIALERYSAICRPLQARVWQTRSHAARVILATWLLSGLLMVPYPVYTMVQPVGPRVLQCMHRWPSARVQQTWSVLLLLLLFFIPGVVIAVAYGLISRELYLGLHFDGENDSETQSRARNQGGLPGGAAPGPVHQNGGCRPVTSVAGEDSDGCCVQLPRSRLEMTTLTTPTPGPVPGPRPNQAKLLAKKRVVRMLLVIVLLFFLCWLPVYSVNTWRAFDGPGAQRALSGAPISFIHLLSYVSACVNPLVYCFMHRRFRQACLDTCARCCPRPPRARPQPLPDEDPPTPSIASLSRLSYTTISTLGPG", "test": "Central receptors: 3H CCK8 binding, rat cortex homogenate", "conditions": "0.5 nM 3H CCK8, 25° C., 30 minutes", "experimental": "The cortices of 20 male rats weighing 150 to 200 g were removed, and were ground up with Polytron in sucrose 0.32M. After centrifuging, the supernatant was recovered and centrifuged. The residues were re-suspended in 120 ml of Hepes buffer pH 7.4 (Hepes 10 mM, NaCl 130 mM, MgCl2, 6H2 O 5 mM, bacitracin 250 mg/l., PMSF 1 mg/l), and re-centrifuged. The residues were taken up in 120 ml of Hepes buffer pH 7.4 and re-centrifuged at 30,000 g for 30 minutes. The residues thus obtained were taken up in 500 ml of Hepes buffer pH 7.4, which enabled 240 aliquots of 2 ml of homogenate to be obtained. The incubation was effected at 25° C. for 30 minutes in the presence of 0.5 nM of 3H CCK8 and the test product (10,000 μM for 1 dose, or with a range of 7 doses or of cold CCK8 (10^-6 M), which was the reference product). After returning the aliquots of the homogenate to 0° C., they were filtered on Whatman GF/B filters and the filters were washed with 3×5 ml of a Tris HCl 50 mM pH 7.4 buffer. The results are expressed is IC50 which is the concentration necessary to inhibit by 50% the fixed specific radioactivity."}, "[4]": {"tested_on": "CCK8-induced contractions of isolated ileum", "test": "Action on the isolated ileum of a guinea-pig (antagonism of CCK8 contractions)", "conditions": "product 10^-7 M, one minute contact, CCK8 1.10^-8 M", "experimental": "The test was carried out on fragments of ileum from male guinea-pigs placed under a tension of 1 g in a Krebs solution aerated with carbogen and maintained at 37° C. The contractions were recorded with a microdynamometer connected to a polygraph. The ileum was left at rest for 30 minutes and then CCK8 was added to the bath in a concentration of 1.10^-8 M, followed by rinsing. The test product was added to the bath, left in contact with the organ for one minute and then CCK8 (1.10^-8 M) was added to the bath. The possible antagonism was expressed by comparing the contractions caused by the CCK8 before and after contact with the product under test."}}, "data": [{"smiles": "CN1C(=O)C(NC(=O)c2cc3ccccc3[nH]2)C(=O)N(c2ccccc2)c2cc(Cl)ccc21", "note": "(stereo not drawn) [Example 1, N-(7-chloro-2,4-dioxo-1-methyl-5-phenyl-2,3,4,5-tetrahydro-1H-1,5-benzodiazepin-3-yl)-1H-indole-2-carboxamide]", "values": [{"measurement": "IC50", "setting": "[1]", "value": 20, "unit": "nM"}, {"measurement": "reduction of food consumption in relation to control animals (anorexigenic activity)", "setting": "[2]", "value": "more than 50%"}, {"measurement": "IC50", "setting": "[3]", "value": 2200, "unit": "nM"}]}, {"smiles": "CN1C(=O)C(NC(=O)c2cc3ccccc3[nH]2)C(=O)N(c2ccccc2)c2ccccc21", "note": "(stereo not drawn) [Example 2]", "values": [{"measurement": "IC50", "setting": "[1]", "value": 14, "unit": "nM"}, {"measurement": "antagonism of contractions caused by CCK8", "setting": "[4]", "value": "significant antagonist activity"}, {"measurement": "IC50", "setting": "[3]", "value": "> 10000", "unit": "nM"}]}]}
